According to patent US6737383B1, “Herbicidal oxadiazolidines” (priority 1999, dated 2004):

Experiments:
[1] = system: bedstraw; assay: Test B pre/postemergence bedstraw; assay type: in vivo, Galium aparine
In short: (§1)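 Test chemicals in a non-phytotoxic solvent mixture with surfactant were sprayed preemergence onto planted seeds and postemergence onto plants 2 to 18 cm tall (1- to 4-leaf stage). After twelve to sixteen days in a greenhouse, injury was visually rated against untreated controls from 0 (no effect) to 10 (complete control).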

[2] = system: bamyardgrass; assay: Test B flood test barnyardgrass; assay type: in vivo, Echinochloa crus-galli; settings: for Plant response rating, Barnyardgrass (0 to 10 scale, 0 is no effect, 10 is complete control) / Barnyardgrass plant response rating (0 to 10 scale, 0 is no effect, 10 is complete control): visual evaluation after twelve to sixteen days; for Barnyardgrass plant response rating (0 to 10 scale, 0 is no effect, 10 is complete control): under heading Pre-emergence
In short: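 Flood test on plants grown to the 2-leaf stage; treated plants kept in greenhouse twelve to sixteen days, then visually rated against controls on a 0 (no effect) to 10 (complete control) scale.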

[3] = system: surinam grass; assay: Test B pre/postemergence surinam grass; assay type: in vivo, Brachiaria decumbens
In short: as §1

[4] = system: blackgrass; assay: Test B pre/postemergence blackgrass; assay type: in vivo, Alopecurus myosuroides
In short: as §1

[5] = Postemergence, Rate 62 g/ha, scale 0 to 10, 0 is no effect, 10 is complete control
[6] = Postemergence, Rate 250 g/ha, scale 0 to 10, 0 no effect, 10 complete control
[7] = Preemergence, Rate 62 g/ha, scale 0 to 10 (0 no effect, 10 complete control)
[8] = Preemergence, Rate 125 g/ha, scale 0 to 10 (0 no effect, 10 complete control)
[9] = Preemergence, Rate 250 g/ha, scale of 0 to 10 where 0 is no effect and 10 is complete control
[10] = Preemergence, Rate 500 g/ha, scale 0 (no effect) to 10 (complete control)
[11] = Rate 125 g/ha, Postemergence, scale 0 to 10, 0 no effect, 10 complete control
[12] = Rate 500 g/ha, Postemergence, scale 0 to 10, 0 no effect, 10 complete control
[13] = Postemergence, Rate 125 g/ha, scale 0 to 10, 0 is no effect, 10 is complete control
[14] = Postemergence, Rate 250 g/ha, scale 0 to 10
[15] = Postemergence, Rate 500 g/ha, scale 0 to 10, 0 is no effect, 10 is complete control
[16] = Rate 62 g/ha, Postemergence, scale 0 to 10, 0 no effect, 10 complete control
[17] = Rate 62 g/ha, flood test species, Pre-emergence
[18] = Rate 125 g/ha, flood test species
[19] = Rate 250 g/ha, Pre-emergence (flood test species), scale 0 to 10, 0 is no effect, 10 is complete control
[20] = Rate 500 g/ha, Pre-emergence section of Table B, 0 to 10 scale (0 no effect, 10 complete control)
[21] = Preemergence, Rate 62 g/ha, scale of 0 to 10 where 0 is no effect and 10 is complete control
[22] = Preemergence, Rate 125 g/ha, scale 0 to 10, 0 is no effect, 10 is complete control
[23] = Preemergence, Rate 250 g/ha, scale 0 to 10, 0 is no effect, 10 is complete control
[24] = Preemergence, Rate 500 g/ha, scale 0 to 10, 0 is no effect, 10 is complete control
[25] = Preemergence, Rate 125 g/ha, scale of 0 to 10 where 0 is no effect and 10 is complete control
[26] = Preemergence, Rate 250 g/ha, scale 0 to 10 (0 no effect, 10 complete control)
[27] = Preemergence, Rate 500 g/ha, scale of 0 to 10 where 0 is no effect and 10 is complete control
[28] = Postemergence, Rate 125 g/ha, scale of 0 to 10 where 0 is no effect and 10 is complete control
[29] = Postemergence, Rate 250 g/ha, scale of 0 to 10, 0 is no effect, 10 is complete control
[30] = Rate 500 g/ha, Postemergence, scale 0 to 10, 0 is no effect, 10 is complete control
[31] = Preemergence, Rate 125 g/ha, 0 is no effect, 10 is complete control
[32] = Preemergence, Rate 500 g/ha, scale 0 to 10 (0 no effect, 10 complete control)
[33] = Rate 62 g/ha, Postemergence, scale of 0 to 10 where 0 is no effect and 10 is complete control
[34] = Rate 250 g/ha, Postemergence, scale 0 to 10, 0 is no effect, 10 is complete control

Cc1cccc(C)c1-n1c(=O)on(C(=O)N(Cc2ccccc2)C(C)C)c1=O [Compound 69]
Bedstraw plant response rating [1, 5]: 0
Bedstraw plant response rating [1, 6]: 5
Bedstraw plant response rating [1, 7]: 0
Plant response rating, Bedstraw [1, 8]: 0
Plant response rating, Bedstraw [1, 9]: 0
Bedstraw plant response rating [1, 10]: 0
Bedstraw plant response rating [1, 11]: 4
Bedstraw plant response rating [1, 12]: 6
Barnyardgrass plant response rating ([2]; Rate 62 g/ha, headed Pre-emergence (flood test species), scale 0 to 10 (0 no effect, 10 complete control)): 0
Barnyardgrass plant response rating ([2]; Rate 125 g/ha, Pre-emergence, flood test species, scale 0 to 10 where 0 is no effect and 10 is complete control): 0
Barnyardgrass plant response rating ([2]; Rate 250 g/ha, headed Pre-emergence (flood test species), scale 0 to 10 (0 no effect, 10 complete control)): 0
Plant response rating, Barnyardgrass ([2]; Rate 500 g/ha, headed Pre-emergence (flood test species), scale 0 to 10 (0 no effect, 10 complete control)): 0
B. signalgrass plant response rating [3, 5]: 0
B. signalgrass plant response rating [3, 6]: 0
B. signalgrass plant response rating [3, 7]: 0
Plant response rating, B. signalgrass [3, 8]: 0
Plant response rating, B. signalgrass [3, 9]: 0
B. signalgrass plant response rating [3, 10]: 0
B. signalgrass plant response rating [3, 11]: 0
Blackgrass plant response rating [4, 5]: 0
Blackgrass plant response rating [4, 6]: 0
Blackgrass plant response rating [4, 7]: 0
Plant response rating, Blackgrass [4, 8]: 0
Plant response rating, Blackgrass [4, 9]: 0
Blackgrass plant response rating [4, 10]: 0
Blackgrass plant response rating [4, 11]: 0
Blackgrass plant response rating [4, 12]: 0

CC(C)C(=O)Cn1c(=O)on(C(=O)N(c2ccc(F)cc2F)C(C)C)c1=O [Compound 486]
Bedstraw plant response rating [1, 13]: 1
Bedstraw plant response rating [1, 14]: 4
Plant response rating, Bedstraw [1, 15]: 8
Bedstraw plant response rating [1, 16]: 0
Plant response rating, Barnyardgrass (0 to 10 scale, 0 is no effect, 10 is complete control) [2, 17]: 0
Barnyardgrass plant response rating (0 to 10 scale, 0 is no effect, 10 is complete control) [2, 18]: 0
Barnyardgrass plant response rating [2, 19]: 0
Barnyardgrass plant response rating [2, 20]: 0
B. signalgrass plant response rating [3, 13]: 0
B. signalgrass plant response rating [3, 6]: 1
Plant response rating, B. signalgrass [3, 15]: 5
Plant response rating, B. signalgrass [3, 21]: 5
B. signalgrass plant response rating [3, 22]: 5
B. signalgrass plant response rating [3, 23]: 6
B. signalgrass plant response rating [3, 24]: 8
B. signalgrass plant response rating [3, 16]: 0
Blackgrass plant response rating [4, 13]: 6
Blackgrass plant response rating [4, 14]: 8
Plant response rating, Blackgrass [4, 15]: 8
Plant response rating, Blackgrass [4, 21]: 7
Blackgrass plant response rating [4, 22]: 9
Blackgrass plant response rating [4, 23]: 10
Blackgrass plant response rating [4, 24]: 10
Blackgrass plant response rating [4, 16]: 0

C=C(Cn1c(=O)on(C(=O)N(c2ccccc2)C(C)C)c1=O)C(C)C [Compound 649]
Bedstraw plant response rating [1, 21]: 0
Bedstraw plant response rating [1, 25]: 0
Plant response rating, Bedstraw [1, 26]: 0
Plant response rating, Bedstraw [1, 27]: 0
Plant response rating, Barnyardgrass (0 to 10 scale, 0 is no effect, 10 is complete control) [2, 17]: 0
Barnyardgrass plant response rating (0 to 10 scale, 0 is no effect, 10 is complete control) [2, 18]: 0
Barnyardgrass plant response rating [2, 19]: 0
Barnyardgrass plant response rating [2, 20]: 2
Plant response rating, B. signalgrass [3, 5]: 0
Plant response rating, B. signalgrass [3, 28]: 0
B. signalgrass plant response rating [3, 29]: 0
B. signalgrass plant response rating [3, 21]: 0
B. signalgrass plant response rating [3, 25]: 0
Plant response rating, B. signalgrass [3, 26]: 0
Plant response rating, B. signalgrass [3, 27]: 0
B. signalgrass plant response rating [3, 30]: 0
Plant response rating, Blackgrass [4, 5]: 0
Blackgrass plant response rating [4, 28]: 0
Blackgrass plant response rating [4, 29]: 0
Blackgrass plant response rating [4, 21]: 0
Blackgrass plant response rating [4, 25]: 0
Plant response rating, Blackgrass [4, 26]: 0
Plant response rating, Blackgrass [4, 27]: 0
Blackgrass plant response rating [4, 30]: 0

CC(C)N(C(=O)n1oc(=O)[nH]c1=O)c1ccc(F)cc1 [Compound 164]
Bedstraw plant response rating [1, 28]: 0
Bedstraw plant response rating [1, 21]: 0
Bedstraw plant response rating (0 to 10 scale) [1, 31]: 0
Bedstraw plant response rating [1, 23]: 0
Bedstraw plant response rating [1, 32]: 0
Bedstraw plant response rating [1, 33]: 0
Barnyardgrass plant response rating ([2]; Postemergence (flood test species), Rate 125 g/ha, scale of 0 to 10 where 0 is no effect and 10 is complete control): 0
Barnyardgrass plant response rating ([2]; Rate 62 g/ha, Postemergence section, flood test species, scale of 0 to 10 where 0 is no effect and 10 is complete control): 0
Plant response rating, Barnyardgrass ([2]; Rate 250 g/ha, Postemergence (flood test), scale 0 to 10, 0 is no effect, 10 is complete control): 0
Barnyardgrass plant response rating ([2]; Rate 500 g/ha, listed under Postemergence (flood test species), scale 0 to 10): 0
B. signalgrass plant response rating [3, 28]: 0
B. signalgrass plant response rating [3, 21]: 0
B. signalgrass plant response rating (0 to 10 scale) [3, 31]: 0
B. signalgrass plant response rating [3, 23]: 0
B. signalgrass plant response rating [3, 32]: 0
B. signalgrass plant response rating [3, 33]: 0
Plant response rating, B. signalgrass [3, 34]: 0
B. signalgrass plant response rating [3, 12]: 0
Blackgrass plant response rating [4, 28]: 0
Blackgrass plant response rating [4, 21]: 0
Blackgrass plant response rating (0 to 10 scale) [4, 31]: 0
Blackgrass plant response rating [4, 23]: 0
Blackgrass plant response rating [4, 32]: 0
Blackgrass plant response rating [4, 33]: 0
Plant response rating, Blackgrass [4, 34]: 0
Blackgrass plant response rating ([4]; Rate 500 g/ha, Postemergence, scale 0 to 10): 0
